# Columns and labels:
# A549R cells [1] = test: Subcellular distribution study by ICP-MS; format: cell-based, human; conditions: 2.0 μM, 12 h
# Experimental: To understand the high sensitivity of cancer cells to Ru(II) complexes, the extent of cellular uptake was investigated with inductively coupled plasma mass spectrometry (ICP-MS) by treating the HeLa, A549, A549R and LO2 cell lines with 2.0 μM concentrations of the Ru(II) complexes and cisplatin for 12 h. […] In this study, the cellular uptake and lipophilicity were distinctly correlated and followed the order: 4 >3 >2 >1. Complex 4 had the best accumulation, but the amount of Ru in LO2 cells was far less than that in the three cancer lines, indicating selective accumulation and improved efficiency for treating cancer. Cisplatin was taken up more efficiently by the sensitive cell line (A549) than by the cisplatin-resistant cell line (A549R). […] However, less than 1.5% of the cellular platinum was accumulated in the mitochondrial fraction of the A549R cells. Therefore, complex 4 could function in a different manner than cisplatin in A549R cells, which would be an appropriate solution to combat cisplatin resistance in tumor cells.
# A549R cells were plated at a density of 1 × 10^5 cells/mL in 10 mL of DMEM for 24 h at 37 °C under 5% CO2 and 20% O2. […] The ruthenium or platinum contents were determined using inductively coupled plasma mass spectrometry (ICP-MS Thermo Elemental Co., Ltd.).
# LO2 = test: MTT cytotoxicity assay, normal LO2 cells; format: cell-based; conditions: LO2 normal human cell line, 48 h
# Experimental: Compounds 1–4 were evaluated against three tumor cell lines derived from different tissues, including the cervix (HeLa), lung (A549) and cisplatin-resistant lung (A549R) tissues. For comparison, the cytotoxicity of cisplatin was also evaluated. As a control, the toxicities of the complexes were also tested against the normal human cell line (LO2).
# The human cervix carcinoma cell line (HeLa), the lung carcinoma cell lines (A549 and A549R), and the human hepatocyte cell line (LO2) were obtained from the Experimental Animal Center at Sun Yat-Sen University (Guangzhou, China). The cells were maintained in Dulbecco’s modified Eagle’s medium (DMEM, Gibco BRL) or Roswell Park Memorial Institute 1640 (RPMI 1640, Gibco BRL) medium supplemented with 10% fetal bovine serum (FBS, Gibco BRL), 100 μg/mL streptomycin, and 100 U/mL penicillin (Gibco BRL) in a humidified incubator under 5% CO2 and 20% O2 at 37 °C. To maintain the resistant phenotype, A549R cells were incubated with 5 μM cisplatin and cultured in drug-free medium for at least a week before use.
# The cytotoxicity of the ruthenium complexes and cisplatin were determined by an MTT assay. Briefly, cells were seeded into 96-well microtiter plates at 1 × 10^4 cells per well and grown overnight at 37 °C in a 5% CO2 incubator; then, different concentrations of the complexes in cell culture medium were added to the cultures. The plates were then incubated in an incubator for 48 h under the same conditions. The stock MTT dye solution (15 μL, 5 mg/mL) was added to each well. After 4 h of incubation, the cultures were removed and 150 μL of DMSO was added to each well. The optical density of each well was measured on a microplate spectrophotometer at a wavelength of 595 nm.
# A549R cells [2] = test: Cell cycle analysis (PI, FACS); format: cell-based, human; conditions: 24 h
# Experimental: Cell proliferation is activated under pathological conditions and plays a crucial role in cancer cell regeneration. Deregulated cell-cycle control is a fundamental aspect of cancer and the process is related to the proliferation and death of cancer cells. Therefore, the effect of cyclometalated complex 4 on cell cycles was investigated using fluorescence-activated cell sorting (FACS) analysis of the DNA content. […] A higher dose of complex 4 (2.0 μM) elicited a strong G2/M arrest of A549R cells, accounting for 46% of the cell population (control, 12.82%). The enrichment of the G2/M phase of the cell cycle of A549R cells may have led to their apoptosis by disrupting the cell cycle.
# A549R cells were treated with different concentrations of complex 4 (i.e., 0.5, 1.0 and 2.0 μM) for 24 h. The cells were collected and fixed in 2 mL of 70% cold aqueous ethanol (v/v). After incubation, the cells were centrifuged and washed three times with cold PBS and resuspended in 0.5 mL of PBS. To a 0.5 mL cell sample, […] of RNase A (1 mg/mL in PBS) was added and incubated for 30 min at 37 °C; then, […] of a PI ([…] in PBS) solution was added after gentle mixing for 5 min at 37 °C in the dark. The samples were resuspended and 10,000 cells were analyzed for each sample by a BD FACS Calibur cytometer (Becton Dickinson, Heidelberg, Germany). The data were acquired and analyzed with ModFit LT 3.2.
# [3] = Distribution coefficient (log Po/w), flask-shaking, n-octanol/phosphate buffer; format: physicochemical; conditions: n-octanol / phosphate buffer pH 7.4, 37 °C; in words only (Figure S8)
# Experimental: Distribution coefficients (log Po/w) were determined by liquid-liquid extraction between n-octanol (oil) and phosphate buffers (0.2 M, pH 7.4) with the flask-shaking method. N-Octanol and the buffer were mutually saturated with each other for at least 24 h before use. An aliquot of a ruthenium complex stock solution was added to the phosphate buffer concentrations at <10 mg/mL, and the mixture was shaken at 100 rpm for 24 h at 37 °C to allow for adequate partitioning. After the sample was centrifuged at 3000 rpm for 20 min, the aqueous layer was used for ruthenium analysis, and the Ru content in the aqueous layer was measured by ICP-MS and used to calculate the log Po/w.
substance,measurement,setting,value
Ru(phen)(bzq)(tbtfpip)(PF6) [Complex 4],share of cellular metal accumulated in the mitochondrial fraction,A549R cells [1],over 55%
same,IC50,LO2,6.7 ± 2.4 µM
same,G2/M share of the cell population,"A549R cells [2]; 2.0 μM, control 12.82%",46%
same,percentage of cells in the G0/G1 phase,A549R cells [2]; control 68.46,30.87%
same,log Po/w,[3],largest

# Reference: publication PMC4725915, “Ruthenium(II) Complexes with 2-Phenylimidazo[4,5-f][1,10]phenanthroline Derivatives that Strongly Combat Cisplatin-Resistant Tumor Cells” (Scientific Reports, 2016)
